Measured values published in article PMC11610652 (Archiv Der Pharmazie, 2024).
Where two headings read alike, the source gives them in different places.

Experiments:
SIRT1 [1] = molecular target: T1, SIRT1 (Homo sapiens, UniProt Q96EB6); experiment: fluorescence-based deacetylase assay kit, human recombinant enzyme; format: biochemical; settings: read-out: Inhibition (%±SD) / SIRT1 / 100 μM / 50 μM
T1 sequence (Q96EB6 2-747): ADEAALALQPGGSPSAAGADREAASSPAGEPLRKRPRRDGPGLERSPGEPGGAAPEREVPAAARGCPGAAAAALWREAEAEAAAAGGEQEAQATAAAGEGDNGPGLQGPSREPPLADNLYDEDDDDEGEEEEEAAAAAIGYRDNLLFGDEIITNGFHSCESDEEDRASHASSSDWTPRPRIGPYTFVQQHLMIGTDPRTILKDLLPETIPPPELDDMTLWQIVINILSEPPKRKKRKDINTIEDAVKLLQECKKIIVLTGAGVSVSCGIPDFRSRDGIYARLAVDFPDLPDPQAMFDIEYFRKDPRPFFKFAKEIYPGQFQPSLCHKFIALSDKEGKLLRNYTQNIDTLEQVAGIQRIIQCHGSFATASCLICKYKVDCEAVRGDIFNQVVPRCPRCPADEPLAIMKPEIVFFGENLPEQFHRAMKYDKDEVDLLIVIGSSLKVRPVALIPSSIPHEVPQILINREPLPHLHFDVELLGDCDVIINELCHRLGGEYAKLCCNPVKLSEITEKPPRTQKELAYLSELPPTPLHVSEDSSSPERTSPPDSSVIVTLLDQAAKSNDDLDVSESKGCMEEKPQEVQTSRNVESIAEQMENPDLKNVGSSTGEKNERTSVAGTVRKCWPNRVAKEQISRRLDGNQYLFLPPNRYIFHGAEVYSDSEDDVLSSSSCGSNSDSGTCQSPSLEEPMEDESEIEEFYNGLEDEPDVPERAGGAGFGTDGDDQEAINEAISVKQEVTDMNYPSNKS

SIRT1 [2] = molecular target: T1, SIRT1; experiment: biochemical; settings: for inhibition at 100 µM: read-out: Inhibition (%±SD) / SIRT1 / 100 μM
SIRT3 [3] = molecular target: T2, SIRT3 (Homo sapiens, UniProt Q9NTG7); experiment: biochemical; settings: for inhibition at 100 µM: read-out: Inhibition (%±SD) / SIRT3 / 100 μM; for inhibition at 50 µM: read-out: Inhibition (%±SD) / SIRT3 / 50 μM
T2 sequence (Q9NTG7 102-399): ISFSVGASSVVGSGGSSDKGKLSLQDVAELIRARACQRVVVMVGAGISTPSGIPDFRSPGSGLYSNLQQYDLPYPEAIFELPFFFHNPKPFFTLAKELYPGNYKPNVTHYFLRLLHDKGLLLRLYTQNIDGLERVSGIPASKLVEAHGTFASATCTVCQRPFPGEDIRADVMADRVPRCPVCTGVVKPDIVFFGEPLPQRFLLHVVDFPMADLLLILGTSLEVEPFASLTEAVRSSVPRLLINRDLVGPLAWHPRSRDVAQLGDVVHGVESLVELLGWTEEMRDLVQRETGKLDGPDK

SIRT2 [4] = molecular target: T3, SIRT2 (Homo sapiens, UniProt Q8IXJ6); experiment: fluorescence-based deacetylase assay kit, human recombinant enzyme; format: biochemical
SIRT2 [5] = molecular target: T4, SIRT2 (Homo sapiens, UniProt Q8IXJ6); experiment: biochemical; settings: for inhibition at 50 µM: read-out: Inhibition (%±SD) / SIRT2 / 50 μM
T4 sequence (Q8IXJ6 2-389): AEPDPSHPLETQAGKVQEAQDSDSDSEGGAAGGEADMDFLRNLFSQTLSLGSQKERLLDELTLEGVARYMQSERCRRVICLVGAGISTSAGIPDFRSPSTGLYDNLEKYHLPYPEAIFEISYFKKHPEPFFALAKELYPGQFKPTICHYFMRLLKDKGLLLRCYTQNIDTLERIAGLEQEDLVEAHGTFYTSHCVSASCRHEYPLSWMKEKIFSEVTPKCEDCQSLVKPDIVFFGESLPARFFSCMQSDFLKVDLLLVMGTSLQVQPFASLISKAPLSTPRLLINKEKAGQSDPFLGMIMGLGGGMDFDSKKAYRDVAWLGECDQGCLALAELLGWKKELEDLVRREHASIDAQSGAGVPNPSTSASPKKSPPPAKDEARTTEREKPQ

SIRT2 [6] = molecular target: T3, SIRT2; experiment: fluorescence-based deacetylase assay kit, human recombinant enzyme; format: biochemical; settings: read-out: Inhibition (%±SD) / SIRT2 / 50 μM / SIRT1 / 100 μM
SIRT3 [7] = molecular target: T2, SIRT3; experiment: as above; format: biochemical; settings: read-out: Inhibition (%±SD) / SIRT3 / 50 μM
[8] = read-out: Inhibition (%±SD) / SIRT2 / 100 μM

Row | inhibition at 100 µM (SIRT1 [2]) [%] | inhibition at 100 µM (SIRT3 [3]) [%] | inhibition at 50 µM (SIRT2 [5]) [%] | inhibition at 100 µM (SIRT2 [5]; [8]) [%] | SMILES | also measured
1 | – | – | – | – | NC(=O)C1CCCc2c1[nH]c1ccc(Cl)cc21 (racemic) [EX‐527] | inhibition at 50 µM (SIRT1 [1]): 90.2%
2 | 22.5 ± 3.74 | 44.7 ± 2.08 | 72.4 ± 2.88 | 106 ± 4.22 | O=C(Nc1ccc2c(c1)C(=O)c1cc(NC(=O)Nc3nccs3)ccc1-2)Nc1nccs1 [SG1, 1,1′‐(9‐Oxo‐9H‐fluorene‐2,7‐diyl)bis[3‐(thiazol‐2‐yl)urea]] | IC50 (SIRT2 [4]): 9.67 µM
3 | 11.3 ± 1.83 | 17.5 ± 0.57 | 21.6 ± 4.19 | 48.5 ± 0.3 | Cn1ccc(NC(=O)Nc2ccc3c(c2)C(=O)c2cc(NC(=O)Nc4ccn(C)n4)ccc2-3)n1 [SG2] | –
4 | – | 18.6 ± 1.54 | 77.8 ± 1.7 | 84.4 ± 4.07 | O=C(Nc1ccc2c(c1)C(=O)c1cc(NC(=O)Nc3ccon3)ccc1-2)Nc1ccon1 [SG3, 1,1′‐(9‐Oxo‐9H‐fluorene‐2,7‐diyl)bis[3‐(isoxazol‐3‐yl)urea]] | IC50 (SIRT2 [4]): 1.95 µM
5 | 24.7 ± 5.02 | 42.5 ± 4.88 | 67.6 ± 3.95 | 101 ± 7.54 | O=C(Nc1ccc2c(c1)C(=O)c1cc(NC(=O)Nc3ccccn3)ccc1-2)Nc1ccccn1 [SG4, 1,1′‐(9‐oxo‐9H‐fluorene‐2,7‐diyl)bis[3‐(pyridin‐2‐yl)urea]] | IC50 (SIRT2 [4]): 6.65 µM
6 | 71.2 ± 5.29 | 55.6 ± 4.42 | – | 102 ± 8.24 | O=C(COc1ccc2c(c1)C(=O)c1cc(OCC(=O)Nc3nccs3)ccc1-2)Nc1nccs1 [SG5, 2,2′‐[(9‐Oxo‐9H‐fluorene‐2,7‐diyl)bis(oxy)]bis[N‐(thiazol‐2‐yl)acetamide]] | inhibition at 50 µM (SIRT1 [2]; read-out: Inhibition (%±SD) / SIRT1 / 50 μM): 53.2 ± 1.62%; inhibition at 50 µM (SIRT2 [6]): 62.4%; inhibition at 50 µM (SIRT3 [3]): 51.7 ± 1.56%
7 | 27.8 ± 1.31 | 36.8 ± 2.26 | 64 ± 3.84 | 65.6 ± 3.34 | Cn1ccc(NC(=O)COc2ccc3c(c2)C(=O)c2cc(OCC(=O)Nc4ccn(C)n4)ccc2-3)n1 [SG6] | inhibition at 50 µM (SIRT3 [3]): 20.5 ± 7.34%
8 | – | – | – | 21.5 ± 2.37 | O=C(COc1ccc2c(c1)C(=O)c1cc(OCC(=O)Nc3ccon3)ccc1-2)Nc1ccon1 [SG7] | –
9 | 13.2 ± 2.22 | 83.07 ± 0.27 | – | 103 ± 2.61 | O=C(COc1ccc2c(c1)C(=O)c1cc(OCC(=O)Nc3ccccn3)ccc1-2)Nc1ccccn1 [SG8, 2,2′‐[(9‐Oxo‐9H‐fluorene‐2,7‐diyl)bis(oxy)]bis[N‐(pyridin‐2‐yl)acetamide]] | inhibition at 50 µM (SIRT3 [7]): 76.4%; inhibition at 50 µM (SIRT2 [6]): 99.8%
10 | – | 90 ± 3.41 | 51 ± 2.28 | 71.4 ± 6.51 | O=C(CSc1ccccc1)Nc1ccc2c(c1)C(=O)c1cc(NC(=O)CSc3ccccc3)ccc1-2 [SG9, N,N′‐(9‐Oxo‐9H‐fluorene‐2,7‐diyl)bis[2‐(phenylthio)acetamide]] | inhibition at 50 µM (SIRT3 [7]): 85%
11 | – | – | – | 18.1 ± 1.88 | Cn1ccnc1SCC(=O)Nc1ccc2c(c1)C(=O)c1cc(NC(=O)CSc3nccn3C)ccc1-2 [SG10] | –
12 | – | – | – | 17.2 ± 6.1 | Cc1cc(C)nc(SCC(=O)Nc2ccc3c(c2)C(=O)c2cc(NC(=O)CSc4nc(C)cc(C)n4)ccc2-3)n1 [SG11] | –
13 | 88.4 ± 4.45 | 95.84 ± 0.52 | – | 85.5 ± 5.68 | CN(CC(=O)Nc1ccc2c(c1)C(=O)c1cc(NC(=O)CN(C)c3ccccc3)ccc1-2)c1ccccc1 [SG12, N,N′‐(9‐oxo‐9H‐fluorene‐2,7‐diyl)bis{2‐[methyl(phenyl)amino]acetamide}] | inhibition at 50 µM (SIRT3 [7]): 70.1%; inhibition at 50 µM (SIRT2 [6]): 74.7%
14 | – | – | – | – | Cc1ccc(C(=O)Nc2ccc(S(=O)(=O)O)c3cc(S(=O)(=O)O)cc(S(=O)(=O)O)c23)cc1NC(=O)c1cccc(NC(=O)Nc2cccc(C(=O)Nc3cc(C(=O)Nc4ccc(S(=O)(=O)O)c5cc(S(=O)(=O)O)cc(S(=O)(=O)O)c45)ccc3C)c2)c1 [Suramin] | inhibition at 100 µM (SIRT2 [5]; read-out: % inhibition): 98.52 ± 0.45%; inhibition (SIRT2 [5]; [8]): 78.92 ± 0.67%
